One series has as its system S. aureus. Description: Minimal inhibitory concentration, S. aureus. It counts as cell-based. To be noted: SCD liquid medium, 48 hours at 35° C.
Another series concerns S. cerevisiae. Description: Minimal inhibitory concentration, S. cerevisiae. To be noted: GP liquid medium, 48 hours at 35° C.
A further series concerns Penicillium chrysogenum. Put plainly: Surface-smearing method, Penicillium chrysogenum. It counts as cell-based. Details: key: the proliferation level of the control (=100%, -); +: up to 80% of proliferation with respect to the proliferation level of the control (=100%, -); ++: up to 40% of proliferation; +++: almost complete suppression of proliferation. To be noted: about 10 mg complex, 4 days at 25° C.

Series [1] has as its system Cladosporium cladosporoides. Description: Surface-smearing method, Cladosporium cladosporoides. It counts as cell-based. On the set-up: key: the proliferation level of the control (=100%, -); +: up to 80% of proliferation with respect to the proliferation level of the control (=100%, -); ++: up to 40% of proliferation; +++: almost complete suppression of proliferation. To be noted: about 10 mg complex, 4 days at 25° C.

The next series deals with C. albicans. Description: Minimal inhibitory concentration, C. albicans. To be noted: GP liquid medium, 48 hours at 35° C.
Another series deals with Fusarium oxysporum. Put plainly: Surface-smearing method, Fusarium oxysporum. It counts as cell-based. To be noted: about 10 mg complex, 4 days at 25° C.
The next series concerns B. subtilis. Put plainly: Minimal inhibitory concentration, B. subtilis. To be noted: SCD liquid medium, 48 hours at 35° C.
The subject of a further series is E. coli. Put plainly: Minimal inhibitory concentration, E. coli. It counts as cell-based. To be noted: SCD liquid medium, 48 hours at 35° C.
Another series has as its system P. aeruginosa. Put plainly: Minimal inhibitory concentration, P. aeruginosa. To be noted: SCD liquid medium, 48 hours at 35° C.
Another series concerns Aspergillus flavus. Description: Surface-smearing method, Aspergillus flavus. To be noted: about 10 mg complex, 4 days at 25° C. It counts as cell-based.
The nature of another series: Solubility in water. To be noted: 20° C.
For another series, the system named is mice. Description: Peroral toxicity, single dose. It counts as in vivo, mice (ICR, male). To be noted: for Dead mice/Total mice: day 14.
For series [2], the system named is human cytomegalovirus (HCMV). Description: Anti-HCMV activity, Experiment 2 (2). It counts as cell-based. To be noted: HCMV 1×10^4 pfu/ml, washed after 1 hour adsorption, 72 hours, control 120.
Series [3] deals with human cytomegalovirus (HCMV). Put plainly: Anti-HCMV activity, Experiment 1. It counts as cell-based. To be noted: 10 μg/ml; Experiment 1, HCMV 1×10^3 pfu/ml, HEL cells, 72 hours; control 30.
Series [4] relates to human cytomegalovirus (HCMV). Description: Anti-HCMV activity, Experiment 2 (1). It counts as cell-based. To be noted: HCMV 1×10^4 pfu/ml, medium not changed, 72 hours, control 390.
Series [5] can be described thus: Stability against exposure to light (color difference). It counts as physicochemical. The procedure:
To 10 mg of each of the thiol-silver complexes shown in Table 9 to be tested, 1 ml of ethanol was added and then sonicated so as to disperse particles. The dispersed particles were uniformly fixed onto a Kiriyama filter paper (No. 3, diameter: 21 mm) by the application of a suction force. After drying, test pieces of the filter paper were sandwiched between colorless transparent plastic films (each having a thickness of 0.1 mm) and the peripheries were sealed.
The test pieces were exposed to sunlight outdoors on a sunny day. During the test, they were placed such that their surfaces received direct rays of the sun at an incidence angle of approximately 90°.
Measurement was performed using a color difference meter CR-300 (using D65 rays) manufactured by Minolta Camera Co., Ltd. Six hours after exposure to sunlight, measurement was reiterated 4 times and the data were averaged.

Where [6] appears, read: after exposure to sunlight, six hours.

A value given as a limit tells only on which side of the number the result lay.

Protocol for B. subtilis: (§1) (b) Method for measuring antibacterial activity based on a minimal inhibitory concentration (MIC)
(§2) A bacterium was inoculated in a soybean casein digest (SCD) liquid medium (5 ml) and precultured for 24 hours at 35° C. The precultured bacterial liquid was diluted so as to obtain a 100-fold diluted liquid (0.1 ml), and was inoculated into an SCD liquid medium containing a thiol-silver complex (2 ml). After performing shaking culture for 48 hours at 35° C., presence or absence of proliferation was assessed.
Protocol for C. albicans: (§3) Yeast was inoculated in a glucose-peptone (GP) liquid medium (5 ml) and precultured for 24 hours at 35° C. The precultured bacterial liquid was diluted so as to obtain a 100-fold diluted liquid (0.1 ml), and was inoculated into a GP liquid medium containing a thiol-silver complex (2 ml). After performing shaking culture for 48 hours at 35° C., presence or absence of proliferation was assessed.
Protocol for P. aeruginosa: as §1, §2
Protocol for S. cerevisiae: as §3

In the case of 2-Naphthalenethiol-silver complex [#3], the “Minimal Inhibitory Concentration” value in the series with S. aureus was 250 µg/mL; in the series with S. cerevisiae, 62.5 µg/mL; in the series on C. albicans it was 125 µg/mL; with B. subtilis, under 2 µg/mL; in the series with E. coli it was 8 µg/mL; in the series on P. aeruginosa, 250 µg/mL. Also, the “antibacterial activity ranking, surface-smearing method” value (“antibacterial activity ranking” below) with Penicillium chrysogenum is reported as “+ (up to 80% of proliferation with respect to the proliferation level of the control (=100%, -))”; in [1], “+++”; with Fusarium oxysporum, “- (the proliferation level of the control (=100%, -))”; in the series on Aspergillus flavus, “+ (up to 80% of proliferation with respect to the proliferation level of the control (=100%, -))”.
Turning to “5-Mercapto-(1H)tetrazoylacetic acid-silver complex.Na [#16-b]”, the “Minimal Inhibitory Concentration” value with S. aureus turned out to be 32 µg/mL; in the series on S. cerevisiae, 125 µg/mL; in the series on C. albicans, 250 µg/mL; with B. subtilis it was 32 µg/mL; with E. coli, 16 µg/mL; in the series on P. aeruginosa, 16 µg/mL. The “antibacterial activity ranking” value in the series with Penicillium chrysogenum is “+++”; in series [1] it was “+++”; in the series on Fusarium oxysporum, “++ (up to 40% of proliferation)”; in the series with Aspergillus flavus, “+ (up to 80% of proliferation with respect to the proliferation level of the control (=100%, -))”.
Regarding `[Cl][Ag]` [silver chloride], the “solubility, in water” value in “Solubility in water” is recorded as “less than 1 % by weight”.
Take “Thiosalicylic acid-silver complex [#1L-8H]”: the “Minimal Inhibitory Concentration” value with S. aureus is 16 µg/mL; in the series with S. cerevisiae, 125 µg/mL; in the series with C. albicans, 1000 µg/mL; in the series with B. subtilis it was under 2 µg/mL; in the series with E. coli, under 2 µg/mL; in the series on P. aeruginosa, 16 µg/mL. Also, the “antibacterial activity ranking” value with Penicillium chrysogenum is listed as “++ (up to 40% of proliferation)”; in series [1], “+++”; in the series with Fusarium oxysporum, “++ (up to 40% of proliferation)”; in the series on Aspergillus flavus it was “- (the proliferation level of the control (=100%, -))”. The “Dead mice/Total mice” value is 0/5 in the series with mice (1762 mg/kg peroral single dose), 0/5 in the series with mice (2291 mg/kg peroral single dose), 0/4 in the series on mice (2978 mg/kg peroral single dose) and 0/4 in the series on mice (3871 mg/kg peroral single dose). For the same compound, in the series on mice (peroral, single dose, ICR male mice, 20160 min), the LD50 result is reported as “not less than 3.9 g/kg”. Moreover, the “number of cells positive in fluorescent staining (single field of vision)” value was 30 in series [2] (1 μg/ml); 30 in series [2] (10 μg/ml); 20 in [2] (50 μg/ml); 5 in series [3]; 280 in series [4] (1 μg/ml); 240 in series [4] (10 μg/ml). Moreover, the “number of cells positive in fluorescent staining (single field of vision)” value in [4] (50 μg/ml) is on record as 100. Moreover, the “L* (L*a*b* color representation)” value came out at 65.4 in series [5] (setting [6]) and 83.1 in series [5] (before exposure to sunlight). The “a* (L*a*b* color representation)” value amounted to 8.3 in [5] (setting [6]) and 13.2 in series [5] (before exposure to sunlight). The “b* (L*a*b* color representation)” value was determined as 40.1 in [5] (setting [6]) and 66.4 in [5] (before exposure to sunlight).
On to α-Thioglycerol-silver complex [#14-b], for which the “Minimal Inhibitory Concentration” value in the series on S. aureus was 250 µg/mL; in the series with S. cerevisiae, 250 µg/mL; with C. albicans, over 1000 µg/mL; in the series with B. subtilis, 250 µg/mL; with P. aeruginosa, 62.5 µg/mL. In addition, the “antibacterial activity ranking” value with Penicillium chrysogenum is “+ (up to 80% of proliferation with respect to the proliferation level of the control (=100%, -))”; in series [1], “++ (up to 40% of proliferation)”; with Fusarium oxysporum it was “- (the proliferation level of the control (=100%, -))”; in the series on Aspergillus flavus, “- (the proliferation level of the control (=100%, -))”.

These data come from patent US5792793A, “Antibacterial, antifungal and antiviral agent” (priority 1993, dated 1998).
